“Also recorded” adds a separate entry of the source.
How the values were obtained:
[1] = Mouse plasma and brain radiometabolite analysis; format: in vivo, mice
Description: The animals were injected IV with 37 MBq (1 mCi) [^11C]CPPC [specific radioactivity=673 GBq/μmol (18.2 Ci/μmol)] and sacrificed by cervical dislocation at 10 min (3 animals) and 30 min (3 animals) after the radiotracer injection. […] Radiometabolites of [^11C]CPPC in the mouse plasma and brain were analyzed using a general HPLC method described above for baboon. Before the HPLC analysis the mouse brain was homogenized in 2 mL of mixture 50% acetonitrile: 50% phosphate buffer (Et3N, H3PO4, pH 7.2). The homogenates were centrifuged (14000 g for 5 min) and supernatants filtered using 0.2 micron filter and filtrate was analyzed by radio-HPLC with phenomenex Gemini C18, 10μ, 4.6×250 mm and 2 mL/min isocratic elution and 50% acetonitrile-50% aqueous triethylamine, c=0.06 M and pH=7.2 as mobile phase. […] The radiometabolites poorly penetrate the blood-brain barrier and their presence in the brain is low (Table 4)

[2] = male, baboon, in vivo, 90 min
CSF1R [3] = biological target: CSF1R (Homo sapiens, UniProt P07333); assay: Postmortem human brain autoradiography; format: binding; design: from tissue; conditions: for Autoradiography binding, Baseline: inferior parietal cortex slices
Sequence of CSF1R (Homo sapiens, UniProt P07333) (P07333 20-972): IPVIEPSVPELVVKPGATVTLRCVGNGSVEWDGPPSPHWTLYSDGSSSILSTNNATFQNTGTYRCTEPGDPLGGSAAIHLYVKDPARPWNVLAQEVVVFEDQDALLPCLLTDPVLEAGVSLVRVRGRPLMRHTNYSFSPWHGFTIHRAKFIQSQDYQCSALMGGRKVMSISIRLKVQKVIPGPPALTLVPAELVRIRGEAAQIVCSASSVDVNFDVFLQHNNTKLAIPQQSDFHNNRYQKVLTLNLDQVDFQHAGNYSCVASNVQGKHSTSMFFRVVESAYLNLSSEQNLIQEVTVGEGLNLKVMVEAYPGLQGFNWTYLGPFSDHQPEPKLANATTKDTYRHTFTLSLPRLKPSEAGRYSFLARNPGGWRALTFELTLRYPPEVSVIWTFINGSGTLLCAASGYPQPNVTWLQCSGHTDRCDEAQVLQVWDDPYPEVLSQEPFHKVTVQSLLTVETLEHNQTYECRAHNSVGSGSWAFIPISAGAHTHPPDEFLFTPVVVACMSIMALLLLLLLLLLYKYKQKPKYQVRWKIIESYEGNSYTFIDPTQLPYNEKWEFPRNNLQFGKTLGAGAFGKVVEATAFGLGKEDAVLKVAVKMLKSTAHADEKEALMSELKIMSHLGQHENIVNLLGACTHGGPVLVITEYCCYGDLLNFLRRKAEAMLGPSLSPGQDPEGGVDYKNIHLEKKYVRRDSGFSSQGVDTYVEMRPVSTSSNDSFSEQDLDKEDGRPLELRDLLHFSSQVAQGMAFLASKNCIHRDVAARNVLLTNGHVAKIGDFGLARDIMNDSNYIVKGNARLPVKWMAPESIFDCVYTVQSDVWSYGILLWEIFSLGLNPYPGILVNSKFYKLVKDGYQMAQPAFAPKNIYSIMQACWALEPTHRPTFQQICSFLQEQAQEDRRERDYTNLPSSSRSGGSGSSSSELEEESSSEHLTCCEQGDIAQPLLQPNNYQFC
Description: Use of human tissues has been approved by the Institutional Review Board of the Johns Hopkins Medical Institutions. […] The slides were exposed to X-ray film and analyzed with outcome expressed as pmol/mm^3 of wet tissue±SD.

CSF1R [4] = assay: Baboon PET (baseline, LPS, LPS-plus-blocking)
CSF1R [5] = biological target: T1, CSF1R (Mus musculus, UniProt P09581); assay: Blocking study with unlabeled CPPC in control mice; format: in vivo; design: from tissue; host or cells: brain of living CD-1, C57BL/6J, transgenic APP (AD model), EAE and CSF1R KO mice
T1 sequence (P09581 20-977): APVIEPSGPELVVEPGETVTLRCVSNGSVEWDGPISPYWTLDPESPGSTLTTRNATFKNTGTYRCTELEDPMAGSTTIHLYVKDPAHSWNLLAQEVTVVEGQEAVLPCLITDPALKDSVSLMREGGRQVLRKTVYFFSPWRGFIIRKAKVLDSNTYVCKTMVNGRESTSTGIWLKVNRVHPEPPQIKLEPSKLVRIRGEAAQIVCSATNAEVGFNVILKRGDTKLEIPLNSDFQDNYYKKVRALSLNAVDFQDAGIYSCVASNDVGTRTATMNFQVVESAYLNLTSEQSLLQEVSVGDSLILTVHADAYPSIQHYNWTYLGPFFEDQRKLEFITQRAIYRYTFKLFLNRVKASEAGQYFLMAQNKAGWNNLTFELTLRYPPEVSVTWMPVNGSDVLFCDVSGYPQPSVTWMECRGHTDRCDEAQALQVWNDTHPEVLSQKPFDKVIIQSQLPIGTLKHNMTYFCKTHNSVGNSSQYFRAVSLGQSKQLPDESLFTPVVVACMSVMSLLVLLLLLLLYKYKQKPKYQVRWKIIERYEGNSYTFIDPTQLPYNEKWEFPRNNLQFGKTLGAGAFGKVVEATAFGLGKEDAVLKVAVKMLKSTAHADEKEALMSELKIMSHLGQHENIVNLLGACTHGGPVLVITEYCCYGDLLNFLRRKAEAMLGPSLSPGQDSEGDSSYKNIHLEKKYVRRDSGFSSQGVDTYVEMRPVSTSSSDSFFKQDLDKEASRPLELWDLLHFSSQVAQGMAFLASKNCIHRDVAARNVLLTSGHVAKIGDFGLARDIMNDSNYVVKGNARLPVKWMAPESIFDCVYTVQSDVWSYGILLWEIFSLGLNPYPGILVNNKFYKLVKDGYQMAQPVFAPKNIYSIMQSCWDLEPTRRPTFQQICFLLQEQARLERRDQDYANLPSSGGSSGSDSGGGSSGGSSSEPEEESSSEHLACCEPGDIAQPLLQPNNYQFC
Description: Mice (male CD1 or C57BL/6J) were killed by cervical dislocation at 45 min following i.v. injection of [^11C]CPPC. The blockers, CPPC (0.3, 0.6, 1.2, 3.0, 10, and 20 mg/kg), or CSF1R inhibitor, compound 8 (Illig C R, et al. (2008)) (2 mg/kg), were given i.p., 5 min before [^11C]CPPC, whereas baseline animals received vehicle. […] Regional brain uptake of [^11C]CPPC at baseline was compared with that with blocking.
Animals were sacrificed by cervical dislocation at 45 min following injection of 5.1 MBq (0.14 mCi) [^11C]CPPC [specific radioactivity=511 GBq/μmol (13.8 Ci/μmol)] in 0.2 mL saline into a lateral tail vein. […] The percentage of standardized uptake value (% SUV) was calculated.
Animals were sacrificed by cervical dislocation at 45 min following injection of 5.0 MBq (0.135 mCi) [^11C]CPPC [specific radioactivity=390 GBq/μmol (10.5 Ci/μmol)] in 0.2 mL saline into a lateral tail vein. […] The outcome variables for the cortex are presented without blood correction as % SUV (FIG. 11A) and with blood correction as SUVR (FIG. 11B).

CSF1R [6] = biological target: T1, CSF1R; assay: PET/CT imaging in EAE mice; format: in vivo; design: from tissue; host or cells: brain of living CD-1, C57BL/6J, transgenic APP (AD model), EAE and CSF1R KO mice

For `[11CH3]N1CCN(c2ccc(NC(=O)c3ccc(C#N)o3)c(N3CCCCC3)c2)CC1` [[^11C]CPPC, 5-cyano-N-(4-(4-[^11C]methylpiperazin-1-yl)-2-(piperidin-1-yl)phenyl)furan-2-carboxamide], the “Brain Parent [^11C]CPPC, %” value ([1]; 10 min) was 96.6 ± 0.1%, the “Plasma Parent [^11C]CPPC, %” value ([1]; 10 min) was 70.2 ± 2.2% and the “Brain Parent [^11C]CPPC, %” value ([1]; 30 min) was 95.1 ± 1.6%. The “Plasma Parent [^11C]CPPC, %” value ([1]; 30 min) was 39.7 ± 1.3%, the “total radiometabolites in blood” value [2] was 71-76% and the “increase of radiotracer binding in AD brain vs. control brain slices” value (CSF1R [3]; baseline autoradiography) was 75-99%. The “Autoradiography binding, Blocking with unlabeled CPPC” value (“Autoradiography binding, Blocking” for short) (CSF1R [3]; sample 1-AD) was 4.72 ± 1.07 pmol/mm3, the “Autoradiography binding, Baseline” value (CSF1R [3]; sample 1-AD) was 8.18 ± 0.68 pmol/mm3 and the “Autoradiography binding, Blocking” value (CSF1R [3]; sample 2-AD) was 2.67 ± 0.53 pmol/mm3. The “Autoradiography binding, Baseline” value (CSF1R [3]; sample 2-AD) was 7.20 ± 1.55 pmol/mm3, the “Autoradiography binding, Blocking” value (CSF1R [3]; sample 3-AD) was 3.73 ± 1.07 pmol/mm3 and the “Autoradiography binding, Baseline” value (CSF1R [3]; sample 3-AD) was 7.43 ± 1.59 pmol/mm3. For the same molecule, the “Autoradiography binding, Blocking” value (CSF1R [3]; sample 4-control) was 2.86 ± 1.06 pmol/mm3, the “Autoradiography binding, Baseline” value (CSF1R [3]; sample 4-control) was 4.11 ± 1.14 pmol/mm3 and the “parametric VT” value (CSF1R [4]; LPS-treated baboon (0.05 mg/kg i.v., 4 h before radiotracer)) was 35-52. For the same molecule, the “K1 value, LPS-treated vs baseline” value (CSF1R [4]; baboon) was “changed only slightly”, the “decrease of metabolite-corrected radioactivity in plasma, LPS-treated vs. baseline” value (CSF1R [4]; baboon) was ~50% and the “parametric VT” value (CSF1R [4]; baboon baseline) was 15-25. The “peak SUV, brain” value (CSF1R [4]; baboon baseline, 20 min postinjection) was 2.5-4.0, the “increase of distribution volume (VT) values in all brain regions of LPS-treated animal” value (CSF1R [4]; baboon, LPS 0.05 mg/kg i.v.) was “More than a twofold increase” and the “VT in LPS-plus-blocking study” value (CSF1R [4]; baboon, blocker CPPC 1 mg/kg s.c. 1.5 h before radiotracer) was “reduction to the baseline level; also recorded: return to the baseline level”. The “blood corrected cortex SUVR, blocking vs baseline” value (CSF1R [5]; CD1 mice, unlabeled CPPC 0.6 and 3 mg/kg, P=0.05, n=3) was “significantly lower”, the “cortex % SUV, blocking vs baseline, without blood correction” value (CSF1R [5]; CD1 mice, unlabeled CPPC 0.6 and 3 mg/kg, P>0.05, n=3) was “No significant difference” and the “reduction of radioactivity (SUVR, blood-corrected) with blocking” value (CSF1R [5]; control CD1 mice, cortex, unlabeled CPPC 0.6 and 3 mg/kg IP, 45 min) was 20%. The “% SUV brain uptake with blocking, low doses of unlabeled CPPC” value (CSF1R [5]; control CD1 mice, dose escalation, 0.6-3 mg/kg, 45 min, no blood correction) was “no reduction; also recorded: failed to show a significant reduction; also recorded: insignificant blockade”, the “% SUV brain uptake with blocking, high doses of unlabeled CPPC” value (CSF1R [5]; control CD1 mice, dose escalation, 10-20 mg/kg, 45 min, no blood correction) was “gradual trend toward increased uptake; also recorded: insignificant gradual increase of uptake” and the “brainstem uptake in EAE mice vs control animals” value (CSF1R [6]) was “up to twofold greater”.
